Source: paper PMC10987543 (Cell Death Discovery, 2024)
“Also recorded” adds a separate entry of the source. Ends that are not written are not given here.

Columns and labels:
[1] = system: 4T1 cells; assay: LDH release assay (CyQUANT); assay type: cell-based, murine; settings: 6 h, indicated concentrations, normalized to lysis buffer
Method: Ten thousand cells were seeded in a 96-well plate and incubated overnight. The cells were washed once, and the medium was replaced with serum-free media. Cells were treated with CKS1 for the indicated time and concentration. CyQUANT LDH cytotoxicity assay (Thermo Fisher Scientific) was used following the manufacturer’s instructions to measure the release of LDH. LDH release was normalized to the amount of LDH released from cells treated with lysis buffer.

[2] = system: HUVECs; assay: BrdU incorporation cell proliferation assay; assay type: cell-based, human; settings: at a concentration in which CKS1 did not induce LDH release, N = 3
Method: One thousands cells were seeded in wells of a 96-well plate. The cells were treated with the indicated concentration of CKS1 immediately after seeding. Forty-eight hours later, 5-bromo-2’-deoxyuridine (BrdU) was added to each well. Twenty four hours later, BrdU incorporation was quantified using the BrdU cell proliferation assay kit (Cell Signaling Technology, Danvers, MA) following the manufacturer’s instructions.

[3] = system: 4T1 cells; assay: Calcein-AM live cell imaging of cytosol release; assay type: cell-based, murine
Method: (§1) Fluorescence labeling of cells was performed by seeding 5.0 × 10^4 4T1 cells in a 35 mm dish on a collagen-coated No. 1.5 coverslip with a 14 mm glass diameter (MatTek, Ashland, MA). After overnight incubation, the cells were washed once with serum-free media and replaced with fresh serum-free media. For cell cytosol labeling, Calcein-AM (Thermo Fisher Scientific, C1430) was added at a final concentration of 5 µg/mL and incubated for 10 min. For mitochondrial membrane labeling, JC-1 (Thermo Fisher Scientific, T3168) was added at a final concentration of 10 µg/mL and incubated for 10 min. To monitor the activity of caspases, CellEvent Caspase-3/7 Red detection reagents (Thermo Fisher Scientific, C10423) were used following the manufacturer’s instructions. For nuclear staining, Hoechst 33342 (Cell Signaling Technology, #4082) was added at a final concentration of 5 µg/mL and incubated for 10 min.
Cells were imaged on either a Zeiss LSM 700 or a 3i spinning disk confocal microscope. Samples were imaged with optimized microscope settings. Z-stack, time-lapse, or multi-channel acquisition settings were adjusted based on the experimental requirements. Images were then acquired with the appropriate excitation and emission wavelengths for each fluorophore.
(§2) Image processing was performed using Fiji software. For each image/video, the brightness and the contrast were adjusted. The time stamp and the scale bar were added. For quantification, CellProfiler was used. After cell segmentation based on the nucleus, the intensity of the signal of interest was quantified for each cell. Based on the intensity, each cells were labeled as positive or negative and the fraction of positive cells was calculated.

[4] = system: 4T1 cells; assay: JC-1 mitochondrial membrane potential live cell imaging; assay type: cell-based, murine; settings: 100 µM
Method: as §1
Cells were imaged on either a Zeiss LSM 700 or a 3i spinning disk confocal microscope. Samples were imaged with optimized microscope settings. […]
as §2, with “For each image/video, the brightness and the contrast were adjusted. The time stamp and the scale bar were added.” left out

[5] = system: caspase-3; assay: Caspase-3 activity assay in cell lysate; assay type: cell-based, murine; settings: 4T1 cells, 100 µM, N = 3
Method: Ten thousand 4T1 cells were seeded in 96-well plates and incubated overnight. After CKS1 treatment, the cells were lysed using a lysis buffer (Cell Signaling Technology, #7018). The activity of caspase-3 in the cell lysate was quantified using the caspase-3 activity assay kit (Cell Signaling Technology, #5723) following the manufacturer’s instructions. Briefly, the cell lysate was incubated with a substrate of caspase-3 which was designed to emit fluorescence when cleaved. After incubation, the fluorescence was measured using a plate reader. The protein concentration of the cell lysate was quantified using the DC protein assay kit (Bio-Rad). The caspase-3 activity was divided by the protein concentration to obtain the caspase-3 activity per µg/mL protein in the cell lysate.

[6] = system: 4T1 cells; assay: Quantification of HMGB-1 release (ELISA); assay type: cell-based, murine; settings: 100 µM, 6 h, N = 3
Method: (§3) Fifteen thousand cells of 4T1 cells or CT26 cells in growth media were seeded in wells of a 96-well plate. After 12 h, the media was replaced with serum-free media, and the cells were treated with the corresponding concentration of CKS1. The cells were treated with CKS1 for 6 h and the supernatant was collected from each well. After filtering the supernatant with a 0.2 µm pore filter (Corning, 431229), the amount of HMGB-1 in the supernatant was quantified using the Mouse/Rat HMGB1 ELISA kit (arigo biolaboratories, ARG81310).

[7] = system: CT26 cells; assay: Quantification of HMGB-1 release (ELISA); assay type: cell-based, murine; settings: 100 µM, 6 h, N = 3
Method: as §3

[8] = system: 4T1 tumors; assay: 4T1 triple breast cancer model, intratumoral treatment; assay type: in vivo, Balb/c mice
Method: (§4) The protocols used in this study were approved by the Institutional Care and Use Committee at Johns Hopkins Medical Institutions. Four- to eight-week-old female Balb/c mice were obtained from Charles River (Wilmington, MA). For the 4T1 […] model, 2.5 × 10^4 4T1 cells were injected into the first mammary fat pad of each mouse. For the CT26 colon carcinoma model, 1.0 × 10^6 CT26 cells were injected subcutaneously in the left flank. The sample size was determined so that the final distribution would be close to normal distribution. After 1 week, the animals were randomized into control and CKS1 treatment. During the randomization, the mice were kept in a cage covered with cloth so that the investigator could not see the tumor size. We started daily intratumoral treatment with 40 mg/kg CKS1. For the control group, the matching volume of water was treated intratumorally. The tumor size was measured by using a caliper, and the volume was calculated by using the formula 0.52 × (length) × (width)^2.
Tumors were fixed by immersion in 10% neutral buffered formalin (Millipore Sigma) for 48 h and subsequently dehydrated by immersion in 70%, 90%, and 100% ethanol followed by xylene for two changes of 30 min each. Tissues were embedded in paraffin blocks at 58 °C and sectioned at 4 μm using a microtome. […]

[9] = system: CT26 tumors; assay: CT26 colon carcinoma model, intratumoral treatment; assay type: in vivo, Balb/c mice; settings: 40 mg/kg intratumoral daily from day 7, N = 10
Method: as §4

## NGRKACLNPASPIVKKIIEKMLNS-NH2 [CKS1, Chemokinostatin-1]
[1]
  release of LDH: released significant amounts of LDH
[2]
  cell proliferation (BrdU incorporation): significantly attenuated cell proliferation
[3]; 4T1 cells stained with calcein-AM, 100 µM, representative of N = 3
  time to release of cytosol (calcein) after treatment: 15 to 30 min
[3]; concentration significantly higher than the IC50 value
  fraction of cancer cells with damaged cell membrane: ~100%
[4]
  mitochondrial membrane potential (JC-1 fluorescence): rapid switch of JC-1 emitted fluorescence from red to green
[5]; 30 min
  caspase-3 activity in cell lysate: not activated
[5]; 4 h
  caspase-3 activity in cell lysate: activated after 4 h
[6]
  release of HMGB-1 in the culture media: weak
[7]
  release of HMGB-1 in the culture media: significant release of HMGB-1
[8]; 4T1 tumors, 40 mg/kg intratumoral daily from day 7, N = 15, 40 mg/kg
  tumor growth (tumor volume): inhibited; also recorded: relatively modest response
[8]; established 4T1 tumors, intratumoral injection, 24 h, representative of N = 3
  tumor necrosis (H&E stain): Necrosis was observed
[9]
  tumor growth (tumor volume): inhibited; also recorded: highly sensitive
